Assay results taken from PMC9774939, “Optimization of Pyrazole Compounds as Antibiotic Adjuvants Active against Colistin- and Carbapenem-Resistant Acinetobacter baumannii” (Antibiotics, 2022).

| Compound | melting point |
| --- | --- |
| CCOC(=O)[C@H](C)NC(=O)CNC(=O)c1cnn(-c2ccccc2)c1-n1cccc1 [Compound 18, N-[N-[[1-Phenyl-5-(1H-pyrrol-1-yl)-1H-pyrazol-4-yl]carbonyl]glycyl]-L-alanine Ethyl Ester] | 116 to 117 °C |
| CC(C)(C)OC(=O)Nc1c(C(=O)NCc2ccc(Br)cc2)cnn1-c1ccc([N+](=O)[O-])cc1 [Compound 21, N-(4-Bromobenzyl)-5-(tert-butoxycarbonylamino)-1-(4-nitrophenyl)-1H-pyrazole-4-carboxamide] | 169 to 171 °C |
| CC(C)(C)OC(=O)[C@H](Cc1ccccc1)NC(=O)c1nn(-c2ccccc2)c(-n2cccc2)c1C#N [Compound 25, tert-Butyl (S)-3-Phenyl-2-[[[4-cyano-1-phenyl-5-(1H-pyrrol-1-yl)-1H-pyrazol-3-yl]carbonyl]amino]propanoate] | 93 to 94 °C |
| Cc1c(C(=O)NCc2ccc(F)cc2)nn(-c2ccc(Cl)c(Cl)c2)c1-n1cccc1 | 148 to 151 °C |
| O=C(NC12CC3CC(CC(O)(C3)C1)C2)c1cc(-n2cccc2)n(-c2ccccc2)n1 [Compound 23, N-(Adamantan-3-ol-1-yl)-1-phenyl-5-(1H-pyrrol-1-yl)-1H-pyrazole-3-carboxamide] | 217 to 221 °C |
| CN1CCN(C(=O)c2cnn(C)c2-n2cccc2)CC1 [Compound 3, (4-Methylpiperazin-1-yl)[1-methyl-5-(1H-pyrrol-1-yl)-1H-pyrazol-4-yl]methanone] | 109 to 111 °C |
| O=C(c1cnn(-c2ccccc2)c1-n1cccc1)N1CCN(c2ncccn2)CC1 [Compound 7, [1-Phenyl-5-(1H-pyrrol-1-yl)-1H-pyrazol-4-yl][4-(pyrimidin-2-yl)piperazin-1-yl]methanone] | 218 to 219 °C |

The remaining lines, values ahead:

| melting point | Compound |
| --- | --- |
| 104 to 108 °C | Cc1c(C(=O)N(C)Cc2ccccc2)nn(-c2ccc(Cl)cc2)c1-n1cccc1 [Compound 34, N-Benzyl-1-(4-chlorophenyl)-N,4-dimethyl-5-(1H-pyrrol-1-yl)-1H-pyrazole-3-carboxamide] |
| 158 to 160 °C | COC(=O)c1cccc(NC(=O)c2nn(-c3ccc(Cl)cc3)c(-n3cccc3)c2C)c1 [Compound 41, Methyl 3-[[[1-(4-Chlorophenyl)-4-methyl-5-(1H-pyrrol-1-yl)-1H-pyrazol-3-yl]carbonyl]amino]benzoate] |
| 238 to 239 °C | Cc1c(C(=O)Nc2ccc(S(N)(=O)=O)cc2)nn(-c2ccc(Cl)cc2)c1-n1cccc1 [Compound 46, 1-(4-Chlorophenyl)-4-methyl-5-(1H-pyrrol-1-yl)-N-(4-sulfamoylphenyl)-1H-pyrazole-3-carboxamide] |
| 189 to 193 °C | Cc1c(C(=O)NCc2ccncc2)nn(-c2ccc(Cl)cc2)c1-n1cccc1 [Compound 33, 1-(4-Chlorophenyl)-4-methyl-N-(pyridin-4-ylmethyl)-5-(1H-pyrrol-1-yl)-1H-pyrazole-3-carboxamide] |
| 144 to 148 °C | Cc1c(C(=O)NCc2ccc3c(c2)OCO3)nn(-c2ccc(Cl)cc2)c1-n1cccc1 [Compound 29, N-(Benzo[d][1,3]dioxol-5-ylmethyl)-1-(4-chlorophenyl)-4-methyl-5-(1H-pyrrol-1-yl)-1H-pyrazole-3-carboxamide] |
| 217 to 219 °C | COC(=O)c1ccccc1NC(=O)c1nn(-c2ccc(Cl)cc2)c(-n2cccc2)c1C [Compound 43, Methyl 2-[[[1-(4-Chlorophenyl)-4-methyl-5-(1H-pyrrol-1-yl)-1H-pyrazol-3-yl]carbonyl]amino]benzoate] |
| 85 to 88 °C | N#Cc1c(C(=O)NCc2ccncc2)nn(-c2ccc(Cl)cc2)c1-n1cccc1 [Compound 35, 1-(4-Chlorophenyl)-4-cyano-N-(pyridin-4-ylmethyl)-5-(1H-pyrrol-1-yl)-1H-pyrazole-3-carboxamide] |
| 168 to 170 °C | CCOC(=O)c1ccc(NC(=O)c2nn(-c3ccc(Cl)cc3)c(-n3cccc3)c2C)cc1 [Compound 32, Ethyl 4-[[[1-(4-Chlorophenyl)-4-methyl-5-(1H-pyrrol-1-yl)-1H-pyrazol-3-yl]carbonyl]amino]benzoate] |
